System: Prox-1
Experiment: Prox-1 antisense morpholino knockdown in Xenopus embryos, whole-mount in situ hybridisation for Prox1 and morphometry
Type: in vivo, Xenopus laevis
Conditions: for reduction of total Prox-1 positive area: as compared to control tadpoles
Method: In a second example 25 ng of Prox-1 antisense morpholino oligonucleotides (Prox-1 MOs) was microinjected in a 1-cell stage Xenopus, in order to investigate the influence on the development of the lymphatic system. Prox1 is known to be expressed exclusively in lymphatic but not in blood vascular endothelial cells. Xenopus laevis embryos were obtained by artificial fertilization using standard techniques and sexually mature adult frogs purchased from Nasco Biology (Fort Atkinson, Wis.). The Prox-1 MOs, 5′-[…]-3′, were purchased from Gene Tools (Corvallis, Oreg.) and designed around the ATG codon. As ATG-specific morpholinos lower translation—but not transcription—of the target gene, we used whole embryo mount in situ hybridisation for Prox1 to visualize the defects in lymphatic vascular development. The 5′ nucleotide sequence of Prox-1 was obtained using 5′ RACE using primers based on published Xenopus laevis cDNA (GenBank # AB008773). To visualise Prox-1 expression pattern, embryos were collected at different developmental stages (according to Nieuwkoop and Faber), fixed and submitted to whole-mount in situ hybridisation according Harland (Harland, 1991), with the exception that BM purple was used as a substrate. The Prox-1 digoxigenin-labeled riboprobe used was constructed from a 950 bp cDNA fragment (GenBank # AB008773), which was cloned into pGEMTeasy and linearised with AatII to get SP6 antisense probe. After in situ hybridisation the embryos where bleached, cleared and stored in glycerol until analysed. Analysis was performed using a Zeiss Axioplan 2 imaging microscope equipped with a Axiocam HrC camera and the KS300 morphometry software. The total ISH-region was divided into 3 different regions where the first region represents the ventral side the tail, a second region where the dorsal migration of prox-1 positive cells takes place and finally a third region which represents the dorsal side. For all regions, length of positive staining was measured, followed by segmentation of the ISH-area by hue, lightness and saturation for defining the true stained area. A value of migration is given by the cell that traveled furthest across the tail. In non-morpholino treated Xenopus we observed that the normal lymphatic system starts developing at the jugular region of the tadpole around developmental stage 29/30. Apart from expression in non-lymphatic tissues such as the pronephros and the eye, the Prox-1 expression at this stage seems to be restricted to the jugular region. At the following stage (31-32), the staining in the jugular region is expanded to what will become the future lymphsacs. The region of the future anterior lymph hearts as well as the ventral caudal region show intense Prox-1 positive signal too. By stage 33/34 the prox positive cells in the caudal region start the formation of the ventral caudal lymphatic vessel. Prox-1 positive lymphatic cells are migrating from the ventral to the dorsal region and this event is culminating at stage 35/36 where the highest amount of migrating cells can be accounted for. The formation of what eventually will become the dorsal lymphatic vessel is also initiated at this stage. By stage 37-38 a majority of the prox positive cells have reached the dorsal side where they are contributing to the formation of dorsal caudal lymphatic vessels. […] In the tail of the Prox-1 morphants dorsal migration of Pro-1 positive cells is dearly impaired. […]

5′-CAGGCATCACTGGACTGTTATTGTG-3′ (all phosphorodiamidate morpholino (PMO)) [Prox-1 MOs, Prox-1 antisense morpholino oligonucleotides purchased from Gene Tools, designed around the ATG codon]
formation of the lymph hearts and the rostral lymphatic structures (Prox1 knockdown): impaired
cardiogenesis (looping, septation and beating of the heart, and blood circulation) (Prox1 morphants): all normal
development of blood vessels (number of Msr-positive intersomitic vessels in anterior trunk, Msr-positive area in posterior trunk) (Prox1 morphants): not affected
Prox-1 staining of the anterior region (Prox-1 morphants): clearly reduced
edema in the head and anterior trunk (beyond stage 45): manifest edema in the head and anterior trunk developed in most Prox1 knockdown embryos
reduction of total Prox-1 positive area (stage 33/34): about 60%
reduction of dorsal migration of Prox-1 positive cells in the tail (stage 35/36, 25 ng microinjected in 1-cell stage, vs control tadpoles): about 55%
reduction of total Prox-1 positive area (stage 35/36): ~50%
dorsal migration of Prox-1 positive cells in the tail (stage 37/38, 25 ng microinjected in 1-cell stage): significantly reduced
reduction of total Prox-1 positive area (stage 37/38): ~35%

Source: patent publication US20070107072A1, “Transgenic amphibian models for lymphatic vessel development” (priority 2003, published 2007)
